The subject of this assay is LS411N human colorectal cancer cells. As to the kind of experiment: LS411N colorectal cancer xenograft: tumor growth inhibition, tumor growth delay and tumor regressions. Conditions: for TGI: Day 18, vs vehicle; for Median Time to 500 mm3: study cut-off Day 67; for Tumor regressions at day 67: animals with regression of n=10 mice/group; for T/C: median time to 500 mm3, treated vs vehicle; for Tumor growth delay: time to 500 mm3 vs vehicle. It is filed as in vivo, Balb/c-nude female mice. The procedure: LS411N human colorectal cancer cells were maintained in RPMI-1640 cell culture medium supplemented with 10% fetal bovine serum at 37°C in an atmosphere of 5% CO2 in air. The cells in exponential growth phase were harvested and counted. Balb/c-nude female mice were inoculated subcutaneously at the right flank with 5x10^6 LS411N cells in 0.2 ml of PBS mixed with Matrigel (1:1) for tumor development. Six days after cell injection, animals having a tumor volume of about 200 mm^3 were randomized and allocated to 9 experimental groups (n=10 mice/group) for treatment with vehicle, compound of formula (II) at 13 mg/kg, compound of formula (II) at 20 mg/kg, tisotumab vedotin at 1 mg/kg, tisotumab vedotin at 4 mg/kg and the combinations of the two doses of compound of formula (II) with the two doses of tisotumab vedotin. Compound of formula (II) was administered intravenously every 4 days for 7 times (Days 0, 4, 8, 12, 16, 20 and 24) and tisotumab vedotin was administered intravenously once a week for two weeks (Days 0 and 7). On Day 0, tisotumab vedotin was given first and, after 1h, compound of formula (II) was administered).
Effect of treatment on tumor growth and body weight was evaluated twice times per week. Tumors were measured in two dimensions using a caliper, and the tumor volume was expressed in mm^3 using the formula: V=(L x W2)/2, where V is tumor volume, L is tumor length (the longest tumor dimension) and W is tumor width (the longest tumor dimension perpendicular to L).
From Day 18 onwards, some animals in the vehicle treated groups had to be euthanized due to tumors reaching the ethical endpoint (3000 mm^3), therefore tumor growth inhibition (TGI) for each treatment group was calculated on Day 18, when all the animals in the vehicle group were available for the calculation of the mean tumor volume.
Figure 2 and Figure 3a and Figure 3b show the tumor growth curves of individual animals in each group and the Kaplan-Meier curves representing the time needed for tumors to reach/exceed 500 mm^3, respectively. Study cut-off Day 67.
To better evaluate the combination benefit, tumor growth delay was evaluated as the time needed for tumors to reach/exceed a defined tumor volume (Table 2). The median time for tumors to reach 500 mm^3 was 7 days, 11 days, 14 days, 28 days and 37 days for vehicle, Compound of formula (II) 13 mg/kg, Compound of formula (II) 20 mg/kg, tisotumab vedotin 1 mg/kg and tisotumab vedotin 4 mg/kg single agent groups, respectively. All the combinations induced a strong tumor growth delay when compared to vehicle and single agent treated arms. The median time for tumors to reach 500 mm^3 in the combination at the lower doses of both agents, Compound of formula (II) 13 mg + tisotumab vedotin 1 mg/kg, was 65 days. For the other combination groups the median time for tumors to reach 500 mm^3 had not yet been reached at Day 67. The effect of the combination on tumor growth delay was more than additive for all the combination groups.

Setting [1] is: Compound of formula (II) 13 mg/kg iv every 4 days x7.
Where [2] appears, read: Compound of formula (II) 13 mg/kg.
Where [3] appears, read: Compound of formula (II) 20 mg/kg iv every 4 days x7.
Where [4] appears, read: Compound of formula (II) 20 mg/kg.
Setting [5] is: tisotumab vedotin 1 mg/kg iv Days 0 and 7.
The mark [6] stands for this setting: tisotumab vedotin 4 mg/kg iv Days 0 and 7.

Turning to `CCc1cccc(CC)c1NC(=O)c1nn(C)c2c1CCc1cnc(Nc3ccc(N4CCC(N(C)C)CC4)cc3OC)nc1-2` [Compound of formula (II), N-(2,6-diethylphenyl)-8-({4-[4-(dimethylamino)piperidin-1-yl]-2-methoxyphenyl}-amino)-1-methyl-4,5-dihydro-1H-pyrazolo[4,3-h]quinazoline-3-carboxamide], the “Mean Tumor Volume (mm^3) Day 18” value amounted to 751 mm^3 under setting [1] and 655 mm^3 under setting [3]. The TGI – broadly, how far tumour growth fell short of that in controls – is, setting by setting: (Compound of formula (II) 13 mg/kg iv every 4 days x7, 13 mg/kg) 46.4%; (Compound of formula (II) 20 mg/kg iv every 4 days x7, 20 mg/kg) 52.6%. In addition, the “Median Time to 500 mm3” value reads like this: under setting [1], 11 days; under setting [3], 14 days. In addition, the “Tumor regressions at day 67” value runs as follows: under setting [2], 0/10; under setting [4], 0/10. The T/C (usually the result in the treated group divided by that in the control group, in per cent) under setting [2] is given as 157% and the T/C under setting [4] was 200%. Also, the “Tumor growth delay” value reads like this: under setting [2], 4 days; under setting [4], 7 days.
Tisotumab vedotin: under setting [5], the “control of tumor growth (individual tumor growth curves)” value was “controlled tumor growth initially, but between Days 14 and 20 all tumors started growing”; the “Mean Tumor Volume (mm^3) Day 18” value is on record as 325 mm^3; the TGI is listed as 76.8%; the “Median Time to 500 mm3” value is 28 days. Under “tisotumab vedotin 1 mg/kg”, the “Tumor regressions at day 67” value is listed as 0/10, the T/C was determined as 400% and the “Tumor growth delay” value worked out at 21 days. Under setting [6], the “control of tumor growth (individual tumor growth curves)” value was “controlled tumor growth and induced tumor regressions initially, but after Day 20 tumors started to regrow as well”; the “Mean Tumor Volume (mm^3) Day 18” value is on record as 147 mm^3; the inhibition of tumour growth (TGI) is listed as 89.5%; the “Median Time to 500 mm3” value is 37 days. For the setting “tisotumab vedotin 4 mg/kg”, the “Tumor regressions at day 67” value is on record as 0/10, the T/C is recorded as 529% and the “Tumor growth delay” value came to 30 days.

Source of the values: EP4506015A1, “COMBINATION OF A MPS1 INHIBITOR AND AN ANTIBODY DRUG CONJUGATE” (Nerviano Medical Sciences S.r.l., priority 2023, dated 2025).
